Activity calls are given as the source filed them. No cut-off for these calls is given here.
Legend:
Klebsiella pneumoniae [1] = experiment: Hormesis activity against Klebsiella pneumonia assessed as inhibition of bacterial growth by measuring shortened logarithmic growth phase at 25 to 50 ug/ml measured after 24 hrs by OD600 based analysis; format: functional, organism-based; details: dose 25-50 µg/ml
Klebsiella pneumoniae [2] = experiment: Hormesis activity against overnight compound-treated Klebsiella pneumoniae assessed as increase in antibiotic MIC by measuring streptomycin MIC at 3 ug/ml incubated for 12 hrs by OD600 based analysis (reference value: 0.78125 ug/ml); format: ADME, organism-based; details: in vivo, dose 3 µg/ml
Klebsiella pneumoniae [3] = experiment: Hormesis activity against overnight compound-treated Klebsiella pneumoniae assessed as increase in antibiotic MIC by measuring chloramphenicol MIC at 3 ug/ml incubated for 12 hrs by OD600 based analysis (reference value: 6.25 ug/ml); format: ADME, organism-based; details: in vivo, dose 3 µg/ml
Klebsiella pneumoniae [4] = experiment: Hormesis activity against Klebsiella pneumoniae deficient in KmrA gene expression assessed as increase in antibiotic MIC by measuring chloramphenicol MIC at 3 ug/ml incubated for 12 hrs by OD600 based analysis (reference value: 6.25 ug/ml); format: ADME, organism-based; details: in vivo, dose 3 µg/ml
Klebsiella pneumoniae [5] = experiment: Hormesis activity against Klebsiella pneumoniae deficient in KmrA gene expression assessed as increase in antibiotic MIC by measuring streptomycin MIC at 3 ug/ml incubated for 12 hrs by OD600 based analysis (reference value: 0.78125 ug/ml); format: ADME, organism-based; details: in vivo, dose 3 µg/ml
Enterobacter cloacae [6] = experiment: Hormesis activity against Enterobacter cloacae assessed as increase in antibiotic MIC by measuring streptomycin MIC at 3 ug/ml incubated for 12 hrs by OD600 based analysis (reference value: 12.5 ug/ml); format: ADME, organism-based; details: in vivo, dose 3 µg/ml
Enterobacter cloacae [7] = experiment: Hormesis activity against Enterobacter cloacae assessed as increase in antibiotic MIC by measuring tetracycline MIC at 3 ug/ml incubated for 12 hrs by OD600 based analysis (reference value: 8 ug/ml); format: ADME, organism-based; details: in vivo, dose 3 µg/ml
Klebsiella pneumoniae [8] = experiment: Hormesis activity against overnight compound-treated Klebsiella pneumoniae assessed as increase in antibiotic MIC by measuring ampicillin MIC at 3 ug/ml incubated for 12 hrs by OD600 based analysis (reference value: 12.5 ug/ml); format: ADME, organism-based; details: in vivo, dose 3 µg/ml
Enterobacter cloacae [9] = experiment: Hormesis activity against Enterobacter cloacae assessed as promotion of bacterial growth by measuring prolonged logarithmic growth phase at 3 to 6 ug/ml measured for 24 hrs by OD600 based analysis; format: organism-based; details: in vivo, dose 3-6 µg/ml
Klebsiella pneumoniae [10] = experiment: Hormesis activity against Klebsiella pneumoniae deficient in KmrA gene expression assessed as increase in antibiotic MIC by measuring tetracycline MIC at 3 ug/ml incubated for 12 hrs by OD600 based analysis (reference value: 6 ug/ml); format: ADME, organism-based; details: in vivo, dose 3 µg/ml
Acinetobacter baumannii [11] = experiment: Hormesis activity against Acinetobacter baumannii assessed as increase in antibiotic MIC by measuring cefotaxime MIC at 3 ug/ml incubated for 12 hrs by OD600 based analysis (reference value: 12.5 ug/ml); format: ADME, organism-based; details: in vivo, dose 3 µg/ml
Klebsiella pneumoniae [12] = experiment: Hormesis activity against Klebsiella pneumoniae assessed as increase in antibiotic MIC by measuring tetracycline MIC at 3 ug/ml incubated for 12 hrs by OD600 based analysis (reference value: 6 ug/ml); format: ADME, organism-based; details: in vivo, dose 3 µg/ml
Acinetobacter baumannii [13] = experiment: Hormesis activity against overnight-compound treated Acinetobacter baumannii assessed as increase in antibiotic MIC by measuring atreonamMIC at 3 ug/ml incubated for 12 hrs by OD600 based analysis (reference value: 6.25 ug/ml); format: ADME, organism-based; details: in vivo, dose 3 µg/ml
Enterobacter cloacae [14] = experiment: Hormesis activity against Enterobacter cloacae assessed as increase in antibiotic MIC by measuring ciprofloxacin MIC at 3 ug/ml incubated for 12 hrs by OD600 based analysis (reference value: 0.0390625 ug/ml); format: ADME, organism-based; details: in vivo, dose 3 µg/ml
Enterobacter cloacae [15] = experiment: Hormesis activity against overnight compound-treated Enterobacter cloacae assessed as increase in antibiotic MIC by measuring cefotaxime MIC at 3 ug/ml incubated for 12 hrs by OD600 based analysis (reference value: 1.5625 ug/ml); format: ADME, organism-based; details: in vivo, dose 3 µg/ml
Klebsiella pneumoniae [16] = experiment: Hormesis activity against Klebsiella pneumoniae deficient in KmrA gene expression assessed as increase in antibiotic MIC by measuring ampicillin MIC at 3 ug/ml incubated for 12 hrs by OD600 based analysis (reference value: 12.5 ug/ml); format: ADME, organism-based; details: in vivo, dose 3 µg/ml
Enterobacter cloacae [17] = experiment: Hormesis activity against Enterobacter cloacae assessed as increase in antibiotic MIC by measuring hygromycinMIC at 3 ug/ml incubated for 12 hrs by OD600 based analysis (reference value: 25 ug/ml); format: ADME, organism-based; details: in vivo, dose 3 µg/ml
Klebsiella pneumoniae [18] = experiment: Hormesis activity against overnight compound-treated Klebsiella pneumoniae assessed as increase in antibiotic MIC by measuring cefotaxime MIC at 3 ug/ml incubated for 12 hrs by OD600 based analysis (reference value: 0.39625 ug/ml); format: ADME, organism-based; details: in vivo, dose 3 µg/ml
[19] = Upregulation of efflux pump regulator gene expression in Klebsiella pneumoniae at 3 ug/ml incubated for 12 hrs by transcriptome analysis; format: ADME; details: dose 3 µg/ml
Acinetobacter baumannii [20] = experiment: Hormesis activity against Acinetobacter baumannii assessed as increase in antibiotic MIC by measuring streptomycin MIC at 3 ug/ml incubated for 12 hrs by OD600 based analysis (reference value: 400 ug/ml); format: ADME, organism-based; details: in vivo, dose 3 µg/ml
Klebsiella pneumoniae [21] = experiment: Hormesis activity against Klebsiella pneumoniae assessed as promotion of bacterial growth at 3 to 6 ug/ml measured for 24 hrs in presence of efflux pump inhibitor, CCCP and 1 to 2 ug/ml tetracycline by OD600 based analysis; format: ADME, organism-based; details: in vivo, dose 3-6 µg/ml
Acinetobacter baumannii [22] = experiment: Hormesis activity against overnight-compound treated Acinetobacter baumannii assessed as increase in antibiotic MIC by measuring chloramphenicol MIC at 3 ug/ml incubated for 12 hrs by OD600 based analysis (reference value: 6.25 ug/ml); format: ADME, organism-based; details: in vivo, dose 3 µg/ml
Enterobacter cloacae [23] = experiment: Hormesis activity against overnight compound-treated Enterobacter cloacae assessed as increase in antibiotic MIC by measuring meropenem MIC at 3 ug/ml incubated for 12 hrs by OD600 based analysis (reference value: 0.1953 ug/ml); format: ADME, organism-based; details: in vivo, dose 3 µg/ml
Klebsiella pneumoniae [24] = experiment: Hormesis activity against overnight compound-treated Klebsiella pneumoniae assessed as increase in antibiotic MIC by measuring atreonamMIC at 3 ug/ml incubated for 12 hrs by OD600 based analysis (reference value: 1.5625 ug/ml); format: ADME, organism-based; details: in vivo, dose 3 µg/ml
Klebsiella pneumoniae [25] = experiment: Hormesis activity against Klebsiella pneumoniae deficient in KmrA gene expression assessed as increase in antibiotic MIC by measuring hygromycinMIC at 3 ug/ml incubated for 12 hrs by OD600 based analysis (reference value: 12.5 ug/ml); format: ADME, organism-based; details: in vivo, dose 3 µg/ml
Klebsiella pneumoniae [26] = experiment: Hormesis activity against Klebsiella pneumoniae deficient in KmrA gene expression assessed as increase in antibiotic MIC by measuring ciprofloxacin MIC at 3 ug/ml incubated for 12 hrs by OD600 based analysis (reference value: 0.0390625 ug/ml); format: ADME, organism-based; details: in vivo, dose 3 µg/ml
Acinetobacter baumannii [27] = experiment: Hormesis activity against overnight-compound treated Acinetobacter baumannii assessed as increase in antibiotic MIC by measuring ampicillin MIC at 3 ug/ml incubated for 12 hrs by OD600 based analysis (reference value: 100 ug/ml); format: ADME, organism-based; details: in vivo, dose 3 µg/ml
Enterobacter cloacae [28] = experiment: Hormesis activity against overnight compound-treated Enterobacter cloacae assessed as increase in antibiotic MIC by measuring tetracycline MIC at 3 ug/ml incubated for 12 hrs by OD600 based analysis (reference value: 8 ug/ml); format: ADME, organism-based; details: in vivo, dose 3 µg/ml
Enterobacter cloacae [29] = experiment: Hormesis activity against Enterobacter cloacae assessed as promotion of bacterial growth up to 25 ug/ml measured for 24 hrs in presence of 8 ug/ml tetracycline by OD600 based analysis; format: organism-based; details: in vivo, dose <=25 µg/ml

- MIC (Klebsiella pneumoniae [2]): 3.125 µg/mL
- MIC (Klebsiella pneumoniae [3]): 6.25 µg/mL
- MIC (Klebsiella pneumoniae [4]): 6.25 µg/mL
- MIC (Klebsiella pneumoniae [5]): 0.7812 µg/mL
- MIC (Enterobacter cloacae [6]): 12.5 µg/mL
- MIC (Enterobacter cloacae [7]): 8 µg/mL
- MIC (Klebsiella pneumoniae [8]): 12.5 µg/mL
- MIC (Klebsiella pneumoniae [10]): 6 µg/mL
- MIC (Acinetobacter baumannii [11]): 12.5 µg/mL
- MIC (Klebsiella pneumoniae [12]): 6 µg/mL
- MIC (Acinetobacter baumannii [13]): 6.25 µg/mL
- MIC (Enterobacter cloacae [14]): 0.07812 µg/mL
- MIC (Enterobacter cloacae [15]): 3.125 µg/mL
- MIC (Klebsiella pneumoniae [16]): 12.5 µg/mL
- MIC (Enterobacter cloacae [17]): 25 µg/mL
- MIC (Klebsiella pneumoniae [18]): 0.3962 µg/mL
- MIC (Acinetobacter baumannii [20]): 400 µg/mL
- MIC (Acinetobacter baumannii [22]): 6.25 µg/mL
- MIC (Enterobacter cloacae [23]): 0.1953 µg/mL
- MIC (Klebsiella pneumoniae [24]): 1.5625 µg/mL
- MIC (Klebsiella pneumoniae [25]): 12.5 µg/mL
- MIC (Klebsiella pneumoniae [26]): 0.03906 µg/mL
- MIC (Acinetobacter baumannii [27]): 200 µg/mL
- MIC (Enterobacter cloacae [28]): 16 µg/mL
Structure (SMILES): COc1ccc2cc3[n+](cc2c1OC)CCc1cc2c(cc1-3)OCO2 [BERBERINE]
- Activity (Klebsiella pneumoniae [1]): Active
- Activity (Enterobacter cloacae [9]): Toxic
- Activity [19]: Toxic
- Activity (Klebsiella pneumoniae [21]): Non-Toxic
- Activity (Enterobacter cloacae [29]): Toxic
